Measured values from patent US20050239854A1, “Body weight gain inhibitors” (priority 1999, published 2005).

Assay: Body weight gain-reducing action in KKAy mice
Conditions: female KKAy mice; for % control (blood glucose level): in admixture with the feed for 4 days, blood glucose relative to own control group = 100

SMILES | % control (blood glucose level) [%] | effect on body weight (in words) (4 days, dose that reduced the blood glucose level to 50-58%)
Cc1oc(-c2ccccc2)nc1COc1ccc(CO/N=C(\CCC(=O)O)c2ccccc2)cc1 [compound of Production Example 3, E-4-[4-(5-methyl-2-phenyl-4-oxazolylmethoxy)benzyloxyimino]-4-phenylbutyric acid] | 50 | 
CN(CCOc1ccc(CC2SC(=O)NC2=O)cc1)c1ccccn1 (stereo not drawn) [rosiglitazone] | 58 | significantly increased the body weight
